From ChEMBL document CHEMBL1141954, “Indole-2-carboxamidines as novel NR2B selective NMDA receptor antagonists” (Bioorg Med Chem Lett, 2005) come the findings set out here.

Each structure is given as a SMILES string.

The target in test [1] is Glutamate NMDA receptor. The experiment in a line: Inhibition of NMDA-evoked intracellular calcium increase in rat cortical cells. It is filed as functional, cell-based. A general note: Calcium assays in cells follow changes in intracellular calcium, usually with a dye or a luminescent sensor.
For another test, the species on record is Mus musculus. The experiment in a line: Oral efficacy in mice formalin test. It is filed as functional.
Test [2] concerns the target Glutamate NMDA receptor. The experiment in a line: Inhibition of NMDA-evoked intracellular calcium increase in rat cortical cell at 1 uM. It is filed as functional, cell-based.
Test [3] concerns the target Glutamate NMDA receptor; GRIN1/GRIN2A (Homo sapiens) (UniProt Q05586+Q12879). The experiment in a line: Inhibitory activity against NR1A expressed in combination with NR2A at 15 uM.

With `COc1ccccc1C/N=C(\N)c1cc2cc(Cl)ccc2[nH]1`, the IC50 on Glutamate NMDA receptor [1] amounted to 64 nM.
`COc1ccccc1C/N=C(\N)c1cc2ccccc2[nH]1.Cl` yielded an ED50 in the test listed under Mus musculus of 15 mg/kg. Moreover, at Glutamate NMDA receptor [1], the IC50 was 35 nM.
`COc1cccc(C/N=C(\N)c2cc3ccccc3[nH]2)c1.Cl`: the inhibition at Glutamate NMDA receptor [2] came to 57%.
Consider `COc1cccc(OC)c1C/N=C(\N)c1cc2cc(Cl)ccc2[nH]1`, for which the IC50 on Glutamate NMDA receptor [1] amounted to 69 nM.
Still for that read-out and setting: the same measure for `COc1ccc2[nH]c(C(=N)NCc3ccccc3OC)cc2c1`: 19 nM.
In the case of `COc1cccc(OC)c1C/N=C(\N)c1cc2ccccc2[nH]1`, in test [3], the inhibition stood at 32.1%. For the same molecule, the IC50 at Glutamate NMDA receptor [1] was 5.4 nM.
Turning to `COc1ccc(C/N=C(\N)c2cc3ccccc3[nH]2)cc1.Cl`, on Glutamate NMDA receptor [2], the inhibition was 10.5%.
`COc1ccc2[nH]c(C(=N)NCc3c(OC)cccc3OC)cc2c1`: the IC50 at Glutamate NMDA receptor [1] worked out at 26 nM.
Same read-out and setting: the same measure for `COc1cccc(OC)c1C/N=C(\N)c1cc2cc(F)ccc2[nH]1`: 17 nM; for `N=C(NCc1ccccc1F)c1cc2ccccc2[nH]1`: 232 nM.
Same read-out and setting: the value for `COc1ccccc1CNC(=N)/C=C/c1ccccc1` was 6.6 nM.
The same measure, in the same setting: the same measure for `COc1ccccc1C/N=C(\N)c1cc2cc(F)ccc2[nH]1`: 33 nM; for `Cc1ccccc1C/N=C(\N)c1cc2ccccc2[nH]1`: 170 nM.
`Cl.N=C(NCc1ccccc1)c1cc2ccccc2[nH]1`: the inhibition on Glutamate NMDA receptor [2] came out at 32.8%.
For `N=C(NCc1c(F)cccc1F)c1cc2ccccc2[nH]1`, on Glutamate NMDA receptor [1], the IC50 was 143 nM.
`N=C(NCc1cc(Cl)cc(Cl)c1)c1cc2ccccc2[nH]1`: on Glutamate NMDA receptor [1], the IC50 came out at 159 nM.

Broadly, the IC50 is the point on the concentration scale where inhibition reaches its midpoint. For orientation: ED50 means the midpoint of the dose-response relation. Read a low ED50 as greater potency. A word on the inhibition: it is the relative decrease from the control value, in per cent.
